Earlier results as cited in paper PMC10928227, “Assessing biologic/toxicologic effects of extractables from plastic contact materials for advanced therapy manufacturing using cell painting assay and cytotoxicity screening” (Scientific Reports, 2024).
Where two headings read alike, the source gives them in different places.

Experiments:
[1] = cited from earlier work
[2] = parameters: method as in ref EURL ECVAM genotoxicity and carcinogencity database, Madia F et al, 2020; conditions: scale Mutagenicity I (ECVAM), ref EURL ECVAM genotoxicity and carcinogencity database, Madia F et al, 2020; cited from earlier work
[3] = cited from earlier work; remark: listed apart in the source
[4] = in Vivo, Database Genotoxicity & Carcinogenicity ECVAM, ref EURL ECVAM genotoxicity and carcinogencity database, Madia F et al, 2020
[5] = in Vivo, Database Genotoxicity OASIS, ref Yu F. Sasaki et. al., 2000, Critical Reviews in Toxicology,30(6),Pp.629-799
[6] = in Vitro, Database Genotoxicity & Carcinogenicity ECVAM, ref EURL ECVAM genotoxicity and carcinogencity database, Madia F et al, 2020

O=C1CCCCCN1 [105-60-2]
Chromosome aberration, in Vivo Mammalian Chromosome Aberration Test ([1]; Database Genotoxicity & Carcinogenicity ECVAM, ref EURL ECVAM genotoxicity and carcinogencity database, Madia F et al, 2020): Negative | Chromosome aberration, Micronucleus Assay [1, 4]: Negative | DNA damage and repair, COMET or Alkaline Elution [1, 4]: Negative | DNA and protein damage, Liver Micronucleus ([1]; in Vivo, Database Genotoxicity OASIS, ref T. Shirotori, M. Miyagawa, Proceeding of the 26th JEMS Annual Meeting, Hatano, 1997, p. 83): Negative | Chromosome aberration, Micronucleus Assay [1, 5]: Negative | DNA damage and repair, Single Cell Gel Electrophoresis (comet) Assay [1, 5]: Negative | Genetic Toxicity, unscheduled DNA synthesis (UDS in Vivo) [2]: Negative | Gene mutation, Bacterial Reverse Mutation Assay (e.g. Ames Test) ([3]; Salmonella typhimurium, No Strain Information, in Vitro, Database: Genotoxicity OASIS, ref Mutation Research 584 (2005) 1-256, Kirkland et al.): Negative | Gene mutation, Bacterial Reverse Mutation Assay (e.g. Ames Test) ([3]; Salmonella typhimurium, Strain TA 97, in Vitro, Database: Bacterial mutagenicity ISSSTY, ref CCRIS database,Toxnet databases (Romualdo Benigni)): Negative | Gene mutation, Bacterial Reverse Mutation Assay (e.g. Ames Test) ([3]; Salmonella typhimurium, Strain TA 98, in Vitro, Database: Bacterial mutagenicity ISSSTY, ref CCRIS database,Toxnet databases (Romualdo Benigni)): Negative | Gene mutation, Bacterial Reverse Mutation Assay (e.g. Ames Test) ([3]; Salmonella typhimurium, Strain TA 98, in Vitro, Database: Genotoxicity OASIS, ref P&G): Negative | Gene mutation, Bacterial Reverse Mutation Assay (e.g. Ames Test) ([3]; Salmonella typhimurium, Strain TA 100, in Vitro, Database: Bacterial mutagenicity ISSSTY, ref CCRIS database,Toxnet databases (Romualdo Benigni)): Negative | Gene mutation, Bacterial Reverse Mutation Assay (e.g. Ames Test) ([3]; Salmonella typhimurium, Strain TA 100, in Vitro, Database: Genotoxicity OASIS, ref P&G): Negative | Gene mutation, Bacterial Reverse Mutation Assay (e.g. Ames Test) ([3]; Salmonella typhimurium, Strain TA 102, in Vitro, Database: Bacterial mutagenicity ISSSTY, ref CCRIS database,Toxnet databases (Romualdo Benigni)): Negative | Gene mutation, Bacterial Reverse Mutation Assay (e.g. Ames Test) ([3]; Salmonella typhimurium, Strain TA 1535, in Vitro, Database: Bacterial mutagenicity ISSSTY, ref CCRIS database,Toxnet databases (Romualdo Benigni)): Negative | Gene mutation, Bacterial Reverse Mutation Assay (e.g. Ames Test) ([3]; Salmonella typhimurium, Strain TA 1535, in Vitro, Database: Genotoxicity OASIS, ref P&G): Negative | Gene mutation, Bacterial Reverse Mutation Assay (e.g. Ames Test) ([3]; Salmonella typhimurium, Strain TA 1537, in Vitro, Database: Bacterial mutagenicity ISSSTY, ref CCRIS database,Toxnet databases (Romualdo Benigni)): Negative | Gene mutation, Bacterial Reverse Mutation Assay (e.g. Ames Test) ([3]; Salmonella typhimurium, Strain TA 1537, in Vitro, Database: Genotoxicity OASIS, ref P&G): Negative | Gene mutation, Bacterial Reverse Mutation Assay (e.g. Ames Test) ([3]; Salmonella typhimurium, Strain TA 1538, in Vitro, Database: Bacterial mutagenicity ISSSTY, ref CCRIS database,Toxnet databases (Romualdo Benigni)): Negative | Chromosome aberration, in Vitro Mammalian Chromosome Aberration Test ([3]; in Vitro, Chinese hamster, Chinese Hamster Lung (CHL), Database Genotoxicity OASIS, ref ECHA, Registration dossier): Positive | Chromosome aberration, in Vitro Mammalian Chromosome Aberration Test ([3]; in Vitro, Chinese hamster, Chinese Hamster Lung (CHL), Duration 24÷48 h, Database Genotoxicity OASIS, ref Sofuni, T., Ed. (1998). Data Book of Chromosomal Aberration Test In Vitro, Revised Edition): Negative | Chromosome aberration, Micronucleus Assay [3, 6]: Negative | Chromosome aberration, in Vitro Mammalian Chromosome Aberration Test [3, 6]: Negative | DNA damage and repair, COMET or Alkaline Elution [3, 6]: Negative | Gene mutation, Bacterial Reverse Mutation Assay (e.g. Ames Test) [3, 6]: Negative | Gene mutation, Mammalian Cell Gene Mutation (MLA HPRT) [3, 6]: Negative | Gene mutation, Bacterial Reverse Mutation Assay (e.g. Ames Test) ([3]; in Vitro, Salmonella typhimurium, No Strain Information, Database Genotoxicity OASIS, ref Journal of Medicinal Chemistry 48 (1), pp. 312-32, 25, Kazius J, McGuire R., Bursi R): Negative | Gene mutation, Bacterial Reverse Mutation Assay (e.g. Ames Test) ([3]; in Vitro, Salmonella typhimurium, Strain TA 97, Database Genotoxicity OASIS, ref P&G): Negative | Gene mutation, Bacterial Reverse Mutation Assay (e.g. Ames Test) ([3]; in Vitro, Salmonella typhimurium, Strain TA 98, Database Genotoxicity OASIS, ref P&G): Negative | Gene mutation, Bacterial Reverse Mutation Assay (e.g. Ames Test) ([3]; in Vitro, Salmonella typhimurium, Strain TA 100, Database Genotoxicity OASIS, ref P&G): Negative | Gene mutation, Bacterial Reverse Mutation Assay (e.g. Ames Test) ([3]; in Vitro, Salmonella typhimurium, Strain TA 102, OECD Guideline 471, Database Genotoxicity OASIS, ref CCRIS database,Toxnet databases): Negative | Gene mutation, Bacterial Reverse Mutation Assay (e.g. Ames Test) ([3]; in Vitro, Salmonella typhimurium, Strain TA 1535, Database Genotoxicity OASIS, ref P&G): Negative | Gene mutation, Bacterial Reverse Mutation Assay (e.g. Ames Test) ([3]; in Vitro, Salmonella typhimurium, Strain TA 1537, Database Genotoxicity OASIS, ref P&G): Negative | Gene mutation, Bacterial Reverse Mutation Assay (e.g. Ames Test) ([3]; in Vitro, Salmonella typhimurium, Strain TA 1538, Database Genotoxicity OASIS, ref P&G): Negative | Gene mutation, Mammalian Cell Gene Mutation Assay ([3]; in Vitro, T-lymphoma Cell Lines, Database Genotoxicity OASIS, ref Mutation Research 584 (2005) 1-256, Kirkland et al.): Negative | Genetic Toxicity, unscheduled DNA synthesis (UDS in Vitro) ([3]; in Vitro, scale Mutagenicity I (ECVAM), ref EURL ECVAM genotoxicity and carcinogencity database, Madia F et al, 2020): Negative
